Test results taken from patent publication US11447504B2, “Macrocyclic chlorine substituted indole derivatives” (Bayer Aktiengesellschaft, priority 2017, dated 2022).
pEC50, pIC50: −log10 of the molar value. Where a name gives a salt, the structure may show the parent alone. Read-outs that look alike come from different tables or passages of the source.

What was measured:
SUDHL10 [1] = assay: Induction of cytotoxicity (Assay 6), SUDHL10
SUDHL5 [2] = assay: Induction of cytotoxicity (Assay 6), SUDHL5
Method: Assay 6 Induction of Cytotoxicity Upon Treatment of Cells with Selected Compounds
Therefore, cytotoxicity assays were run in parallel in SUDHL5 and SUDHL10 cells.
The different cell lines were plated in culture medium (RPMI 1640 [GIBCO #22400-089]supplemented with 10% Fetal Bovine Serum) at a density of 3,300 cells in 30 μL/well in a sterile, solid black, flat bottom, polystyrene, TC-treated 384-well microplate (Corning #3571) using Multidrop Combi Reagent Dispenser. As a control, medium without cells was also added to the plate. Cells were incubated in a humidified incubator at 37° C. overnight. […] Rim wells were excluded. The cells were incubated for 5 hours in a humidified incubator at 37° C. After this incubation, 30 μL of CellTiter-Glo® Luminescent Cell Viability reagent (Promega, G7573) was added to each well using the Multidrop Combi Reagent Dispenser, followed by 15 minutes incubation on a shaker at room temperature. Finally, luminescence was read at 0.1 ms, with a gain of 3000 using the PHERAstar FS microplate reader (BMG Labtech).

SUDHL5 [3] = assay: Induction of caspase-3/7 activity (Assay 4), SUDHL5; type: cell-based; settings: SUDHL5 cells
Method: (§1) Induction of Caspase-3/7 Activity Upon Treatment of Cells with Selected Compounds
The BH3-domain of MCL-1 sequesters pro-apoptotic proteins, thereby inhibiting apoptosis. In contrast, MCL-1 inhibitors are expected to antagonize this effect leading to an increase in apoptosis, which can be determined by measuring the activity of caspase-3/7.
(§2) The activity of caspase-3/7 was determined in DLBCL (Diffuse large B-cell lymphoma) cell lines (SUDHL5 and SUDHL10) upon treatment with different compounds, using the Caspase-Glo®3/7 reagent from Promega (G8092).
(§3) Rim wells were excluded. The cells were incubated for 3 hours in a humidified incubator at 37° C.
(§4) For the evaluation of the results, the background measured with “medium-only” was subtracted from all other values.

MV-4-11 = assay: Antiproliferation assay 7, MV-4-11; type: cell-based; settings: MV-4-11 cells, CellTiter-Glo, read-out: Antiproli MV-4-11 IC50 median
Method: (§5) Assessment of the Anti-Proliferative Effect of Compounds in Different Cell Lines
(§6) The impact of compounds on the proliferation of different cell lines was assessed using the CellTiter-Glo® Luminescent Cell Viability reagent from Promega (G7573).
(§7) In parallel, cells were plated in a reference (day 0) plate for time zero determination.
(§8) Rim wells were excluded. The cells were incubated for 72 hours in a humidified incubator at 37° C. The day 0 plate was measured by adding 30 μL/well of CTG solution (CellTiter-Glo® Luminescent Cell Viability reagent, Promega G7573) to time zero wells in the reference plate followed by a 10 minutes incubation and luminescence reading at 0.1 ms. using the PHERAstar FS microplate reader (BMG Labtech).
(§9) After 72 hours incubation, the treated plates were measured in the same way as the day 0 plate mentioned above.

SUDHL5 [4] = assay: Antiproliferation assay 7, SUDHL5; type: cell-based; settings: SUDHL5 cells, CellTiter-Glo, read-out: Antiproli SUDHL5 IC50 (median)
Method: as §5, §6, §7, §8, §9

SUDHL10 [5] = assay: Induction of caspase-3/7 activity (Assay 4), SUDHL10; type: cell-based; settings: SUDHL10 cells
Method: as §1
In contrast, MCL-1 inhibitors are expected to antagonize this effect leading to an increase in apoptosis, which can be determined by measuring the activity of caspase-3/7.
as §2, §3, §4

AMO-1 = assay: Antiproliferation assay 7, AMO-1; type: cell-based; settings: AMO-1 cells, CellTiter-Glo, read-out: Antiproli AMO-1 IC50 median
Method: as §5, §6, §7, §8, §9

[6] = Homo sapiens, SU-DHL10, 5 h, read-out: Cytotox SUDHL10 IC50 (median), SUDHL10 cells, 5 hours, CellTiter-Glo
[7] = Homo sapiens, SU-DHL-5, 5 h, read-out: Cytotox SUDHL5 IC50 (median), SUDHL5 cells, 5 hours, CellTiter-Glo
[8] = Homo sapiens, SU-DHL-5, 3 h, Caspase-Glo 3/7, read-out: Caspase SUDHL5 EC50 (median)
[9] = Homo sapiens, SU-DHL10, 3 h, Caspase-Glo 3/7, read-out: Caspase SUDHL10 EC50 (median)
[10] = read-out: Cytotox SUDHL10 IC50 (median), SUDHL10 cells, 5 hours, CellTiter-Glo
[11] = read-out: Cytotox SUDHL5 IC50 (median), SUDHL5 cells, 5 hours, CellTiter-Glo
[12] = 3 hours, Caspase-Glo 3/7, read-out: Caspase SUDHL5 EC50 (median)
[13] = 3 hours, Caspase-Glo 3/7, read-out: Caspase SUDHL10 EC50 (median)

pEC50 (SUDHL5 [3]; [8])	pIC50 (MV-4-11; Homo sapiens, MV4-11, 72 h)	pIC50 (SUDHL5 [4]; Homo sapiens, SU-DHL-5, 72 h)	pEC50 (SUDHL10 [5]; [9])	pIC50 (MV-4-11; 72 hours)	pIC50 (SUDHL5 [4]; 72 hours)	pEC50 (SUDHL10 [5]; [13])	SMILES	pIC50 (SUDHL10 [1]; [6])	pIC50 (SUDHL5 [2]; [7])	pIC50 (AMO-1; Homo sapiens, AMO1, 72 h)	pIC50 (SUDHL10 [1]; [10])	pIC50 (SUDHL5 [2]; [11])	pEC50 (SUDHL5 [3]; [12])	pIC50 (AMO-1; 72 hours)
5.54	5.09	5.52	5.24				Cc1c2c(nn1C)CNCCCn1c(C(=O)O)c(CCCOc3cccc4ccccc34)c3ccc(Cl)c-2c31 (racemic) [Example 28, (rac)-12-chloro-10,11-dimethyl-1-[3-(naphthalen-1-yloxy)propyl]-4,5,6,7,8,10-hexahydropyrazolo[3′,4′:7,8][1,5]diazecino[9,10,1-hi]indole-2-carboxylic Acid-Formic Acid Salt]	5.25	5.48					
6.52	6.00	6.47	6.35				CCc1c2c(nn1C)COCCCCn1c(C(=O)O)c(CCCOc3cccc4cc(F)ccc34)c3ccc(Cl)c-2c31 (racemic) [Example 36, (rac)-4-chloro-3-ethyl-7-{3-[(6-fluoronaphthalen-1-yl)oxy]propyl}-2-methyl-2,10,11,12,13,15-hexahydropyrazolo[4′,3′:9,10][1,6]oxazacycloundecino[8,7,6-hi]indole-8-carboxylic Acid]	6.19	6.52	6.54				
6.70	6.35	6.70	6.41				CCc1nn(C)c2c1-c1c(Cl)ccc3c(CCCOc4cccc5cc(F)ccc45)c(C(=O)O)n(c13)CCCCN(C)C2 (racemic) [Example 39, (rac)-4-chloro-3-ethyl-7-{3-[(6-fluoronaphthalen-1-yl)oxy]propyl}-1,14-dimethyl-10,11,12,13,14,15-hexahydro-1H-pyrazolo[3′,4′:8,9][1,6]diazacycloundecino[10,11,1-hi]indole-8-carboxylic Acid]	6.39	6.64	6.44				
6.27	6.01	6.66	5.89				CCc1nn(CCN2CCOCC2)c2c1-c1c(Cl)ccc3c(CCCOc4cccc5ccccc45)c(C(=O)O)n(c13)C/C=C\CN(C)C2 (racemic) [Example 42, (rac)-(11Z)-4-chloro-3-ethyl-14-methyl-1-[2-(morpholin-4-yl)ethyl]-7-{3-[(naphthalen-1-yl)oxy]-propyl}-10,13,14,15-tetrahydro-1H-pyrazolo[3′,4′:8,9][1,6]diazacycloundecino[10,11,1-hi]indole-8-carboxylic Acid]	5.80	6.22	5.86				
6.54	6.20	6.28	6.34				CCc1nn(CCN2CCOCC2)c2c1-c1c(Cl)ccc3c(CCCOc4cccc5ccccc45)c(C(=O)O)n(c13)CCCCN(C)C2 (racemic) [Example 45, (rac)-4-chloro-3-ethyl-14-methyl-1-[2-(morpholin-4-yl)ethyl]-7-{3-[(naphthalen-1-yl)oxy]propyl}-10,11,12,13,14,15-hexahydro-1H-pyrazolo[3′,4′:8,9][1,6]diazacycloundecino[10,11,1-hi]indole-8-carboxylic Acid]	6.12	6.40	6.23				
6.10	5.77	5.80	5.72				CCc1c2c(nn1C)CCCCCCn1c(C(=O)O)c(CCCOc3cccc4ccccc34)c3ccc(Cl)c-2c31 (racemic) [Example 51, (rac)-4-chloro-3-ethyl-2-methyl-7-{3-[(naphthalen-1-yl)oxy]propyl}-10,11,12,13,14,15-hexahydro-2H-pyrazolo[4′,3′:4,5]azacycloundecino[3,2,1-hi]indole-8-carboxylic Acid]	5.70	6.08	5.67				
5.18	4.96	5.31	4.85				CCc1nn(CCN2CCOCC2)c2c1-c1c(Cl)ccc3c(CCCOc4cccc5ccccc45)c(C(=O)O)n(c13)CCCCOC2 (single isomer, unassigned; enantiomer 2) [Example 10, 4-chloro-3-ethyl-1-[2-(morpholin-4-yl)ethyl]-7-[3-(naphthalen-1-yloxy)propyl]-1,10,11,12,13,15-hexahydropyrazolo[4′,3′:9,10][1,6]oxazacycloundecino[8,7,6-hi]indole-8-carboxylic acid-N-ethylethanamine Salt (Enantiomer 2)]	4.96	5.28					
				5.17	5.47	5.00	CCc1c2c(nn1C)CN(C)CCCCn1c(C(=O)O)c(CCCOc3cccc4ccccc34)c3ccc(Cl)c-2c31 (single isomer, unassigned; enantiomer 2) [Example 24, 4-chloro-3-ethyl-2,14-dimethyl-7-[3-(naphthalen-1-yloxy)propyl]-10,11,12,13,14,15-hexahydro-2H-pyrazolo[3′,4′:8,9][1,6]diazacycloundecino[10,11,1-hi]indole-8-carboxylic Acid (Enantiomer 2)]				5.13	5.33		
				4.87	5.74	4.89	CCc1c2c(nn1C)COCCCCn1c(C(=O)O)c(CCCOc3cccc4cc(F)ccc34)c3ccc(Cl)c-2c31 (single isomer, unassigned; enantiomer 2) [Example 38, (−)-4-chloro-3-ethyl-7-{3-[(6-fluoronaphthalen-1-yl)oxy]propyl}-2-methyl-2,10,11,12,13,15-hexahydropyrazolo[4′,3′:9,10][1,6]oxazacycloundecino[8,7,6-hi]indole-8-carboxylic acid-N-ethylethanamine Salt (Enantiomer 2)]				4.85	5.37		4.94
				5.25	5.10	4.66	CCc1nn(CCN2CCOCC2)c2c1-c1c(Cl)ccc3c(CCCOc4cccc5ccccc45)c(C(=O)O)n(c13)CCCCN(C)C2 (single isomer, unassigned; enantiomer 2) [Example 47, 4-chloro-3-ethyl-14-methyl-1-[2-(morpholin-4-yl)ethyl]-7-{3-[(naphthalen-1-yl)oxy]propyl}-10,11,12,13,14,15-hexahydro-1H-pyrazolo[3′,4′:8,9][1,6]diazacycloundecino[10,11,1-hi]indole-8-carboxylic Acid (Enantiomer 2)]				4.77	5.00	4.96	

SMILES	pEC50 (SUDHL5 [3]; [8])	pIC50 (MV-4-11; Homo sapiens, MV4-11, 72 h)	pIC50 (SUDHL5 [4]; Homo sapiens, SU-DHL-5, 72 h)	pEC50 (SUDHL10 [5]; [9])	pIC50 (MV-4-11; 72 hours)	pIC50 (SUDHL5 [4]; 72 hours)	pEC50 (SUDHL10 [5]; [13])	pIC50 (SUDHL10 [1]; [6])	pIC50 (SUDHL5 [2]; [7])	pIC50 (AMO-1; Homo sapiens, AMO1, 72 h)	pIC50 (SUDHL10 [1]; [10])	pIC50 (SUDHL5 [2]; [11])	pEC50 (SUDHL5 [3]; [12])	pIC50 (AMO-1; 72 hours)
Cc1c2c(nn1C)CN(C)CCCCn1c(C(=O)O)c(CCCOc3cccc4ccccc34)c3ccc(Cl)c-2c31 (single isomer, unassigned; enantiomer 2) [Example 13, (−)-4-chloro-2,3,14-trimethyl-7-[3-(naphthalen-1-yloxy)propyl]-10,11,12,13,14,15-hexahydro-2H-pyrazolo[3′,4′:8,9][1,6]diazacycloundecino[10,11,1-hi]indole-8-carboxylic acid-N-ethylethanamine Salt (Enantiomer 2)]					4.91	5.19					4.89	5.16	5.00	
Cc1c2c(nn1C)COCCCCn1c(C(=O)O)c(CCCOc3cccc4ccccc34)c3ccc(Cl)c-2c31 (single isomer, unassigned; enantiomer 2) [Example 27, 4-chloro-2,3-dimethyl-7-[3-(naphthalen-1-yloxy)propyl]-2,10,11,12,13,15-hexahydropyrazolo-[4′,3′:9,10][1,6]oxazacycloundecino[8,7,6-hi]indole-8-carboxylic acid-N-ethylethanamine Salt (Enantiomer 2)]					4.79	5.11	4.64				4.70	5.00	4.80	
